Test system: methicillin resistant Staphylococcus aureus (MRSA)
Assay: Growth inhibition of MRSA
Format: cell-based
Description: Mupirocin (Pseudomonic acid A, or Bactroban) is the frontline topical antibiotic used to combat skin infections with gram positive bacteria and is also used in the eradication of MRSA from infected people. It was originally produced as Bactroban by GlaxoSmithKline, but now it is available generically within a number of different commercial formulations. MRSA strain 52 is susceptible to both the P. fluorescens mupirocin (Panel A) and Vietnamycin (BVAS; Panel B). However, MRSA strain 49 is representative of a number of emerging S. aureus strains that are resistant to mupirocin (Panel C).

Which results are given for `C/C(=C\C(=O)OCCCCCCCCC(=O)O)C[C@@H]1OC[C@H](C[C@@H]2O[C@H]2[C@@H](C)[C@H](C)O)[C@@H](O)[C@H]1O` [mupirocin, Mupirocin]?
Growth inhibition of mupirocin resistant MRSA (strain 49) (mupirocin resistant strain): resistant; Growth inhibition of MRSA strain 52 (mupirocin susceptible strain, producer bacterium overlay): susceptible

From patent publication US9138447B2, “Antimicrobial agent and method for the production thereof” (UNIVERSITY COLLEGE CARDIFF CONSULTANTS LTD., priority 2008, dated 2015)
